# Laboratory results as given in patent US20100267561A1, “HERBICIDAL PYRIDAZINONE DERIVATIVES” (priority 2007, published 2010).
# Where two headings read alike, the source gives them in different places.
# What was measured:
# Type in all cases: in vivo
# [1] = system: canarygrass (Phalaris minor); assay: Test B postemergence plant response; settings: for Plant response rating, Canarygrass: Postemergence
# Method in brief: (§1)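 Compounds applied after emergence to 2–18 cm plants; response read visually 13–15 days later on 0 (none) to 100 (complete control); a dash marks no result.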
# [2] = system: winter barley (Hordeum vulgare); assay: Test B postemergence plant response; settings: for Plant response rating, Barley: Postemergence, scale 0 to 100, 0 no effect, 100 complete control
# Method in brief: as §1
# [3] = system: windgrass (Apera spica-venti); assay: Test B postemergence plant response; settings: for Windgrass plant response rating: postemergence, 0-100 scale; for Plant response rating, Windgrass: Postemergence
# Method in brief: as §1
# [4] = system: chickweed (Stellaria media); assay: Test B postemergence plant response; settings: for Plant response rating, Chickweed: Postemergence
# Method in brief: as §1
# [5] = system: wheat (Triticum aestivum); assay: Test B pre-/postemergence plant response; settings: for plant injury at 31 g/ha / plant injury at 62 g/ha: Triticum aestivum, read-out: Plant response rating, Wheat; for plant injury at 31 g/ha: 31 g ai/ha; for plant injury at 62 g/ha: 62 g ai/ha, 100 complete control
# Method in brief: (§2)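 Preemergence and postemergence (plants 2-18 cm, 1- to 4-leaf stage) applications used test chemicals in a non-phytotoxic solvent with surfactant. Plants were held in a greenhouse 13 to 15 days, then rated visually against controls on a 0-100 scale (0 no effect, 100 complete control).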
# [6] = system: surinam grass (Brachiaria decumbens); assay: Test B pre-/postemergence plant response; settings: for pest or weed control at 31 g/ha / pest or weed control at 62 g/ha: Urochloa decumbens, read-out: Plant response rating, Surinam Grass; for pest or weed control at 31 g/ha: 31 g ai/ha; for pest or weed control at 62 g/ha: 62 g ai/ha, 100 complete control
# Method in brief: as §2
# [7] = system: downy bromegrass (Bromus tectorum); assay: Test B pre-/postemergence plant response; settings: for pest or weed control at 31 g/ha: 31 g ai/ha
# Method in brief: as §2
# [8] = system: morningglory (Ipomoea coccinea); assay: Test B pre-/postemergence plant response; settings: for pest or weed control at 31 g/ha / pest or weed control at 62 g/ha: Ipomoea, read-out: Plant response rating, Morningglory; for pest or weed control at 31 g/ha: 31 g ai/ha; for pest or weed control at 62 g/ha: 62 g ai/ha, 100 complete control
# Method in brief: as §2
# [9] = system: pigweed (Amaranthus retroflexus); assay: Test B pre-/postemergence plant response; settings: for pest or weed control at 31 g/ha / pest or weed control at 62 g/ha: Amaranthus retroflexus, read-out: Plant response rating, Pigweed; for pest or weed control at 31 g/ha: 31 g ai/ha; for pest or weed control at 62 g/ha: 62 g ai/ha, 100 complete control
# Method in brief: as §2
# [10] = system: giant foxtail (Setaria faberii); assay: Test B pre-/postemergence plant response; settings: for pest or weed control at 31 g/ha: 31 g ai/ha; for pest or weed control at 62 g/ha: 62 g ai/ha, 100 complete control
# Method in brief: as §2
# [11] = system: common (oilseed) sunflower (Helianthus annuus); assay: Test B pre-/postemergence plant response; settings: Preemergence
# Method in brief: as §2
# [12] = system: bermudagrass (Cynodon dactylon); assay: Test B pre-/postemergence plant response; settings: for pest or weed control at 31 g/ha: 31 g ai/ha; for pest or weed control at 62 g/ha: 62 g ai/ha, 100 complete control
# Method in brief: as §2
# soybean (Glycine max) = assay: Test B pre-/postemergence plant response; settings: for plant injury at 31 g/ha / plant injury at 62 g/ha: Glycine max, read-out: Plant response rating, Soybean; for plant injury at 31 g/ha: 31 g ai/ha; for plant injury at 62 g/ha: 62 g ai/ha, 100 complete control
# Method in brief: as §2
# [13] = system: lambsquarters (Chenopodium album); assay: Test B pre-/postemergence plant response; settings: for pest or weed control at 31 g/ha / pest or weed control at 62 g/ha: Chenopodium album, read-out: Plant response rating, Lambsquarters; for pest or weed control at 31 g/ha: 31 g ai/ha; for pest or weed control at 62 g/ha: 62 g ai/ha, 100 complete control
# Method in brief: as §2
# [14] = system: Italian ryegrass (Lolium multiflorum); assay: Test B pre-/postemergence plant response; settings: for pest or weed control at 31 g/ha / pest or weed control at 62 g/ha: Lolium multiflorum, read-out: Plant response rating, Ryegrass, Italian; for pest or weed control at 31 g/ha: 31 g ai/ha; for pest or weed control at 62 g/ha: 62 g ai/ha, 100 complete control
# Method in brief: as §2
# [15] = 8 g ai/ha, postemergence, 0-100 scale
# [16] = 62 g ai/ha, scale 0 to 100, 0 no effect, 100 complete control
# [17] = 16 g ai/ha, postemergence, 0-100 scale
# [18] = Preemergence, 8 g ai/ha, scale 0 to 100 (0 no effect, 100 complete control)
# [19] = Preemergence, 16 g ai/ha, scale 0 to 100
# [20] = post-emergence, Postemergence, scale 0 to 100
# [21] = post-emergence, Postemergence, scale 0 to 100, 0 no effect
# [22] = pre-emergence, Preemergence, scale 0 to 100 (0 no effect, 100 complete control)
# [23] = pre-emergence, Preemergence, 0 to 100 scale, 0 no effect
structure (smiles),measurement,setting,value
"Cc1cc(-c2ccc(Br)cc2)nn1-c1c(OC(=O)C2CC2)cnn(C(=O)C2CC2)c1=O [Compound 80, 5-[3-(4-bromophenyl)-5-methyl-1H-pyrazol-1-yl]-1-(cyclopropylcarbonyl)-1,6-dihydro-6-oxo-4-pyridazinyl cyclopropanecarboxylate]",Canarygrass plant response rating,[1]; [15],90
same,"Plant response rating, Canarygrass","[1]; 16 g ai/ha, scale 0 to 100",98
same,"Plant response rating, Canarygrass","[1]; 31 g ai/ha, scale 0 to 100",100
same,"Plant response rating, Canarygrass",[1]; [16],100
same,Barley plant response rating,[2]; [15],30
same,"Plant response rating, Barley",[2]; 16 g ai/ha,60
same,"Plant response rating, Barley",[2]; 31 g ai/ha,95
same,"Plant response rating, Barley",[2]; 62 g ai/ha,98
same,Windgrass plant response rating,[3]; 8 g ai/ha,30
same,Windgrass plant response rating,[3]; 16 g ai/ha,40
same,"Plant response rating, Windgrass","[3]; 31 g ai/ha, scale 0 to 100",60
same,"Plant response rating, Windgrass",[3]; [16],70
same,Chickweed plant response rating,[4]; [15],0
same,"Plant response rating, Chickweed","[4]; 16 g ai/ha, scale 0 to 100",0
same,"Plant response rating, Chickweed","[4]; 31 g ai/ha, scale 0 to 100",0
same,"Plant response rating, Chickweed",[4]; [16],0
same,Wheat plant response rating,[5]; [15],35
same,Wheat plant response rating,[5]; [17],85
same,Wheat plant response rating,[5]; [18],0
same,Wheat plant response rating,[5]; [19],20
same,plant injury at 31 g/ha,[5]; [20],95%
same,plant injury at 62 g/ha,[5]; [21],98%
same,plant injury at 31 g/ha,[5]; [22],60%
same,plant injury at 62 g/ha,[5]; [23],95%
same,Surinam Grass plant response rating,[6]; [15],95
same,Surinam Grass plant response rating,[6]; [17],100
same,Surinam Grass plant response rating,[6]; [18],0
same,Surinam Grass plant response rating,[6]; [19],65
same,pest or weed control at 31 g/ha,[6]; [20],100%
same,pest or weed control at 62 g/ha,[6]; [21],100%
same,pest or weed control at 31 g/ha,[6]; [22],98%
same,pest or weed control at 62 g/ha,[6]; [23],100%
same,"Bromegrass, Downy plant response rating",[7]; [15],40
same,pest or weed control at 16 g/ha,"[7]; Bromus tectorum, post-emergence, Postemergence, 16 g ai/ha, scale 0 to 100, read-out: Plant response rating, Bromegrass, Downy",45%
same,pest or weed control at 31 g/ha,"[7]; Bromus tectorum, post-emergence, Postemergence, scale 0 to 100, read-out: Plant response rating, Bromegrass, Downy",90%
same,pest or weed control at 31 g/ha,"[7]; Bromus tectorum, pre-emergence, Preemergence, scale 0 to 100 (0 no effect, 100 complete control), read-out: Plant response rating, Bromegrass, Downy",85%
same,pest or weed control at 62 g/ha,"[7]; Bromus tectorum, pre-emergence, Preemergence, 62 g ai/ha, 0 to 100 scale, 0 no effect, 100 complete control, read-out: Plant response rating, Bromegrass, Downy",85%
same,"Bromegrass, Downy plant response rating",[7]; [18],0
same,"Bromegrass, Downy plant response rating",[7]; [19],30
same,Morningglory plant response rating,[8]; [15],0
same,Morningglory plant response rating,[8]; [17],0
same,pest or weed control at 31 g/ha,[8]; [20],0%
same,pest or weed control at 62 g/ha,[8]; [21],0%
same,pest or weed control at 31 g/ha,[8]; [22],0%
same,pest or weed control at 62 g/ha,[8]; [23],0%
same,Morningglory plant response rating,[8]; [18],0
same,Morningglory plant response rating,[8]; [19],0
same,Pigweed plant response rating,[9]; [15],0
same,Pigweed plant response rating,[9]; [17],0
same,pest or weed control at 31 g/ha,[9]; [20],0%
same,pest or weed control at 62 g/ha,[9]; [21],0%
same,pest or weed control at 31 g/ha,[9]; [22],0%
same,pest or weed control at 62 g/ha,[9]; [23],55%
same,Pigweed plant response rating,[9]; [18],0
same,Pigweed plant response rating,[9]; [19],0
same,"Foxtail, Giant plant response rating",[10]; [15],95
same,"Foxtail, Giant plant response rating",[10]; [18],0
same,"Foxtail, Giant plant response rating",[10]; [19],100
same,pest or weed control at 16 g/ha,"[10]; Setaria faberi, post-emergence, Postemergence, 16 g ai/ha, scale 0 to 100, read-out: Plant response rating, Foxtail, Giant",100%
same,pest or weed control at 31 g/ha,"[10]; Setaria faberi, post-emergence, Postemergence, scale 0 to 100, read-out: Plant response rating, Foxtail, Giant",100%
same,pest or weed control at 62 g/ha,"[10]; Setaria faberi, post-emergence, Postemergence, scale 0 to 100, 0 no effect, read-out: Plant response rating, Foxtail, Giant",100%
same,pest or weed control at 31 g/ha,"[10]; Setaria faberi, pre-emergence, Preemergence, scale 0 to 100 (0 no effect, 100 complete control), read-out: Plant response rating, Foxtail, Giant",100%
same,pest or weed control at 62 g/ha,"[10]; Setaria faberi, pre-emergence, Preemergence, 0 to 100 scale, 0 no effect, read-out: Plant response rating, Foxtail, Giant",100%
same,pest or weed control at 31 g/ha,"[11]; Helianthus annuus, pre-emergence, 31 g ai/ha, scale 0 to 100 (0 no effect, 100 complete control), read-out: Plant response rating, Sunflower",0%
same,pest or weed control at 62 g/ha,"[11]; Helianthus annuus, pre-emergence, 62 g ai/ha, 0 to 100 scale, 0 no effect, 100 complete control, read-out: Plant response rating, Sunflower",0%
same,Sunflower plant response rating,"[11]; 8 g ai/ha, scale 0 to 100 (0 no effect, 100 complete control)",0
same,Sunflower plant response rating,"[11]; 16 g ai/ha, scale 0 to 100",0
same,Bermudagrass plant response rating,[12]; [15],85
same,pest or weed control at 16 g/ha,"[12]; Cynodon dactylon, post-emergence, Postemergence, 16 g ai/ha, scale 0 to 100, read-out: Plant response rating, Bermudagrass",95%
same,pest or weed control at 31 g/ha,"[12]; Cynodon dactylon, post-emergence, Postemergence, scale 0 to 100, read-out: Plant response rating, Bermudagrass",100%
same,pest or weed control at 62 g/ha,"[12]; Cynodon dactylon, post-emergence, Postemergence, scale 0 to 100, 0 no effect, read-out: Plant response rating, Bermudagrass",100%
same,pest or weed control at 31 g/ha,"[12]; Cynodon dactylon, pre-emergence, Preemergence, scale 0 to 100 (0 no effect, 100 complete control), read-out: Plant response rating, Bermudagrass",100%
same,pest or weed control at 62 g/ha,"[12]; Cynodon dactylon, pre-emergence, Preemergence, 0 to 100 scale, 0 no effect, read-out: Plant response rating, Bermudagrass",100%
same,Bermudagrass plant response rating,[12]; [18],50
same,Bermudagrass plant response rating,"[12]; Preemergence, 16 g ai/ha, scale 0 to 100 (0 no effect, 100 complete control)",100
same,Soybean plant response rating,soybean (Glycine max); [15],0
same,Soybean plant response rating,soybean (Glycine max); [17],0
same,plant injury at 31 g/ha,soybean (Glycine max); [20],15%
same,plant injury at 62 g/ha,soybean (Glycine max); [21],20%
same,plant injury at 31 g/ha,soybean (Glycine max); [22],0%
same,plant injury at 62 g/ha,soybean (Glycine max); [23],0%
same,Soybean plant response rating,soybean (Glycine max); [18],0
same,Soybean plant response rating,soybean (Glycine max); [19],0
same,Lambsquarters plant response rating,[13]; [15],0
same,Lambsquarters plant response rating,[13]; [17],0
same,pest or weed control at 31 g/ha,[13]; [20],0%
same,pest or weed control at 62 g/ha,[13]; [21],0%
same,pest or weed control at 31 g/ha,[13]; [22],0%
same,pest or weed control at 62 g/ha,[13]; [23],0%
same,Lambsquarters plant response rating,[13]; [18],0
same,Lambsquarters plant response rating,[13]; [19],0
same,"Ryegrass, Italian plant response rating",[14]; [15],80
same,"Ryegrass, Italian plant response rating",[14]; [17],98
same,pest or weed control at 31 g/ha,[14]; [20],100%
same,pest or weed control at 62 g/ha,[14]; [21],100%
same,pest or weed control at 31 g/ha,[14]; [22],40%
same,pest or weed control at 62 g/ha,[14]; [23],100%
same,"Ryegrass, Italian plant response rating",[14]; [18],0
same,"Ryegrass, Italian plant response rating",[14]; [19],40
